The results in this text go back to patent US12295936B2, “Immunomodulating urea azalides” (Zoetis Services LLC, priority 2020, dated 2025).

Series [1] deals with E. coli and Salmonella isolates. In words: Ames mutagenicity test. The class given is cell-based. The conditions noted are these: 1-5000 μg/plate, plate incorporation method. The procedure: In an Ames mutagenicity test, Example H-91 (1-5000 μg/plate; using the plate incorporation method and a standard panel of bacterial (E. coli and Salmonella isolates) was negative (non-mutagenic).

Series [2] relates to IL-1β. In words: LPS-stimulated whole bovine blood assay, MSD cytokine detection. The class given is cell-based. The settings on record: for IC50: Bos taurus, LPS-stimulated whole bovine blood, * = enhanced response at concentration indicating potential cytotoxicity; for IL-1β OS of LPS: overstimulation of IL-1β, LPS-stimulated bovine whole blood.
Series [3] is described as follows: Lipophilicity (logP). The class given is physicochemical. The source says: The lipophilicity of an organic compound can be described by a partition coefficient, log P, which can be defined as the ratio of the concentration of the unionized compound at equilibrium between organic and aqueous phases. Generally speaking, more lipophilic compounds are less soluble in aqueous media. A negative value for log P means the compound has a higher affinity for the aqueous phase (hydrophilic); when log P=0 the compound is equally partitioned between the lipid and aqueous phases; a positive value for log P denotes a higher concentration in the lipid phase (lipophilic). Lipophilicity is a major determining factor in a compound's absorption, distribution in the body, penetration across vital membranes and biological barriers, metabolism and excretion. The compounds of the invention are lipophilic (log P˜0.503 to 5.96) which aid in their transport and absorption into respiratory tissues, e.g., lungs.

Series [4] deals with IL-36RA. In words: IL-36RA change during natural infection bovine studies. The class given is in vivo, cattle. The conditions noted are these: H-91 0.5 mg/kg, H-11 0.1 mg/kg; for IL-36RA concentration relative to the baseline concentration after the elevation: after roughly 8 hours; for increase in IL-36RA compared to baseline: within 1 hour, FIG. 5. The procedure:
(§1) Intensive sample collection was conducted over a 96-hour period in a subset of cattle treated with Example H-91 (0.5 mg/kg) or H-11 (0.1 mg/kg) in the natural bovine infection studies. […] The compounds of the invention have shown an up-regulation of IL-36RA, which then binds to IL-36R limiting the pro-inflammatory response of IL-36. In addition, the IL-8 levels from one of the natural infection studies with Example H-91, increased 270% over the course of the study for control animals. In contrast, the IL-8 levels in animals dosed with Example H-91 decreased by about 15%.

The subject of series [5] is IL-17 / IFN-γ producing CD4+ T helper cells. In words: In vivo genomics challenge model: T helper subtypes and airway IL-17. Set-up: species or system Holstein cattle.
Series [6] concerns M. haemolytica. Put plainly: In-vitro MIC model (CLSI broth micro-dilution). The conditions noted are these: Mannheimia haemolytica. Background: Dilution methods test growth across graded concentrations, often in twofold steps.
The test system of series [7] is BRD pathogens, M. haemolytica and P. multocida. In words: MIC screening panel of BRD pathogens (antibacterial / non-antibacterial).
Series [8] relates to IL-8. Put plainly: IL-8 levels in cattle (natural infection and M. hemolytica challenge studies). The class given is in vivo. The settings on record: over the course of a natural infection study; control animals increased 270%. The procedure:
as §1

In series [9] the test system is P. multocida. In words: Murine P. multocida intranasal challenge study with lung tissue RNA sequence analysis. It counts as in vivo, mice. The procedure:
In one murine P. multocida intranasal challenge study, mice were administered tulathromycin (16 mg/kg; T02), M9 (32 mg/kg; T03), or ceftiofur (9 mg/kg; T04) by subcutaneous injection 18 hours after bacterial challenge (5×10^3 CFU/mouse) for lung tissue RNA sequence analysis. Survival at Day 7 was about 80%, 50%, and 90% for T02, T03, and T04, respectively, compared to placebo at 0%. Differential gene expression from total lung tissue RNA sequence analysis indicated at least 226 unique genes were up or down regulated (with significance) for T03. Output from ingenuity pathway analysis of these unique genes predicted major upstream regulators of the involved pathways. Data was analyzed based on the number of genes being modulated in the same direction that were associated with a given upstream regulator. An activation z-score of 2 or greater is considered significant and the direction change is indicated by +(activated) or − (inhibited). The top 5 pathways included: IL-9 signaling, glucocorticoid receptor signaling, prolactin signaling, JAK STAT signaling, and IL-17 signaling. The top 6 upstream regulators (activation z-score) included: lipopolysaccharide (−6.725), TNF (−4.669), IFNG (−5.759), IL-1β (−5.947), STAT1 (−2.787), and poly rl:rC-RNA (−5.289). Even though this study was run in the murine model, the top upstream regulators identified as being modulated by M9 include an almost ubiquitous overlap with the pathways identified in the natural disease study as being key mediators in BRD, and therefore is modulating highly relevant pathways in BRD pathobiology.

[10] abbreviates: read-out: antibacterial / non-antibacterial (MIC for the BRD pathogens).
[11] abbreviates: read-out: MIC to the M. haemolytica challenge strain.
Where [12] appears, read: M9 32 mg/kg (T03), ingenuity pathway analysis, − = inhibited.

Values after ≈ are worked out from the molar mass of the structure shown. “Also recorded” adds a separate entry of the source. Read-outs that look alike come from different tables or passages of the source.

Take `CCCNC[C@]1(O)[C@H](C)O[C@@H](O[C@H]2[C@H](C)[C@@H](O[C@@H]3O[C@H](C)C[C@H](N(C)C(=O)N(C)c4ccccc4)[C@H]3O)[C@](C)(O)C[C@@H](C)CN[C@H](C)[C@@H](O)[C@](C)(O)[C@@H](CC)OC(=O)[C@@H]2C)C[C@@]1(C)OC` [Example H-11, 1-((2S,3R,4S,6R)-2-(((2R,3S,4R,5R,8R,10R,11R,12S,13S,14R)-2-ethyl-3,4,10-trihydroxy-13-(((2R,4R,5S,6S)-5-hydroxy-4-methoxy-4,6-dimethyl-5-((propylamino)methyl)tetrahydro-2H-pyran-2-yl)oxy)-3,5,8,10,12,14-hexamethyl-15-oxo-1-oxa-6-azacyclopentadecan-11-yl)oxy)-3-hydroxy-6-methyltetrahydro-2H-pyran-4-yl)-1,3-dimethyl-3-phenylurea]: in [1], the Ames mutagenicity test result was “non-mutagenic”. Besides, the “expression of IL-1β, LPS stimulated whole bovine blood” value in series [2] (4 independent studies with multiple blood donors, FIG. 4) is recorded as “dose dependent reduction”. In addition, in [2], the IC50 (in general, the concentration at which inhibition is half-maximal) was 36 µM and the “IL-1β OS of LPS” value came out at 32 µM. For the same molecule, the logP (commonly a log measure of how a compound divides between an organic and an aqueous phase) in series [3] was 3.2. Moreover, in series [4], the “IL-36RA concentration relative to the baseline concentration after the elevation” value is on record as −55% and the “increase in IL-36RA compared to baseline” value is “about 50%”. Also, the “Th1:Th17 ratio post-treatment” value in [5] (0.1 mg/kg (T02), blood at 24 and 48 hours, FIG. 9) is “increase”. Further, in series [5] (animals challenged with M. haemolytica, FIG. 10), the “IL-17 levels in the airway (BAL fluid, consolidated lung tissue)” value was “reduction”. For the same molecule, the MIC in series [6] was > 64 µg/mL. In addition, the “in vitro activity vs. clinically relevant pathogenic strains for BRD (M. haemolytica and P. multocida)” value in series [7] is “lack of in vitro activity”. The MIC in series [7] (setting [10]) is > 64 µg/mL.
On to `CCCNC[C@]1(O)[C@H](C)O[C@@H](O[C@H]2[C@H](C)[C@@H](O[C@@H]3O[C@H](C)C[C@H](N(C)C(=O)Nc4ccccc4)[C@H]3O)[C@](C)(O)C[C@@H](C)CN[C@H](C)[C@@H](O)[C@](C)(O)[C@@H](CC)OC(=O)[C@@H]2C)C[C@@]1(C)OC` [Example H-91, 1-((2S,3R,4S,6R)-2-(((2R,3S,4R,5R,8R,10R,11R,12S,13S,14R)-2-ethyl-3,4,10-trihydroxy-13-(((2R,4R,5S,6S)-5-hydroxy-4-methoxy-4,6-dimethyl-5-((propylamino)methyl)tetrahydro-2H-pyran-2-yl)oxy)-3,5,8,10,12,14-hexamethyl-15-oxo-1-oxa-6-azacyclopentadecan-11-yl)oxy)-3-hydroxy-6-methyltetrahydro-2H-pyran-4-yl)-1-methyl-3-phenylurea], for which, in series [1], the Ames mutagenicity test result is “negative; also recorded: non-mutagenic”. For the same molecule, the IC50 in series [2] turned out to be 103 µM. Besides, the “IL-1β OS of LPS” value in series [2] was found to be 130 µM. This molecule yielded a logP in series [3] of 3.1. For the same molecule, in series [4], the “IL-36RA concentration relative to the baseline concentration after the elevation” value was −55%. Besides, the “increase in IL-36RA compared to baseline” value in series [4] was “about 275%”. Further, the “decrease of IL-8 levels” value in [8] was “about 15%”. Also, the MIC in series [6] was > 256 µg/mL; in series [6] (read-out: MIC against all M. haemolytica target pathogens tested), > 256 µg/mL; in [6] (setting [11]) it was > 256 µg/mL; in [7] (setting [10]), > 64 µg/mL. Besides, in series [7], the “in vitro activity vs. clinically relevant pathogenic strains for BRD (M. haemolytica and P. multocida)” value was “lack of in vitro activity”.
Regarding `CCCNC[C@]1(O)[C@H](C)O[C@@H](O[C@H]2[C@H](C)[C@@H](O[C@@H]3O[C@H](C)C[C@H](NC)[C@H]3O)[C@](C)(O)C[C@@H](C)CN[C@H](C)[C@@H](O)[C@](C)(O)[C@@H](CC)OC(=O)[C@@H]2C)C[C@@]1(C)OC` [Example M9, (2R,3S,4R,5R,8R,10R,11R,12S,13S,14R)-2-ethyl-3,4,10-trihydroxy-13-(((2R,4R,5S,6S)-5-hydroxy-4-methoxy-4,6-dimethyl-5-((propylamino)methyl)-tetrahydro-2H-pyran-2-yl)oxy)-11-(((2S,3R,4S,6R)-3-hydroxy-6-methyl-4-(methylamino)tetrahydro-2H-pyran-2-yl)oxy)-3,5,8,10,12,14-hexamethyl-1-oxa-6-azacyclopentadecan-15-one, reference compound], the IC50 in series [2] was ~250 µM. For the same molecule, the logP in series [3] stood at 2.2. The “unique genes up or down regulated (with significance), total lung tissue RNA sequence analysis” value in series [9] (M9 32 mg/kg (T03)) was “at least 226”. For the same molecule, in series [9] (setting [12]), the “activation z-score, upstream regulator IFNG” value was −5.759; the “activation z-score, upstream regulator IL-1β” value was −5.947; the “activation z-score, upstream regulator STAT1” value is −2.787; the “activation z-score, upstream regulator TNF” value is listed as −4.669. For the same molecule, in series [9] (setting [12]), the “activation z-score, upstream regulator lipopolysaccharide” value was −6.725 and the “activation z-score, upstream regulator poly rl:rC-RNA” value was −5.289. For the same molecule, the “Survival at Day 7” value in series [9] (subcutaneous 18 hours after challenge (5×10^3 CFU/mouse): tulathromycin 16 mg/kg, M9 32 mg/kg, ceftiofur 9 mg/kg, placebo 0%) is reported as ~50%. In series [6], the MIC50 (in general, the lowest concentration that inhibits either 50% of growth or 50% of the strains tested, depending on the study) was > 64 µg/mL and the MIC90 – broadly, the lowest concentration that inhibits either 90% of growth or 90% of the strains tested, depending on the study – is > 64 µg/mL. The MIC in series [6] (ATCC33396, read-out: Comparative MIC's, M. haemolytica ATCC 33396) is 32 µg/mL (≈ 40.4 µM). Moreover, the MIC in series [6] (read-out: Comparative MIC's, M. haemolytica 12726) worked out at 32 µg/mL (≈ 40.4 µM). Moreover, the MIC in series [6] (read-out: Comparative MIC's, M. haemolytica 46571*) stood at 32 µg/mL (≈ 40.4 µM). The MIC in [6] (setting [11]) is > 64 µg/mL. Further, in series [7] (read-out: MIC for the BRD bacterial strains tested / target pathogens), the MIC is ≤ 64 µg/mL. Further, the MIC in [7] (setting [10]) was < 64 µg/mL.
